{"source": "paper PMC5456102", "about": "“NGR-peptide−drug conjugates with dual targeting properties” (PLoS ONE, 2017)", "key": {"[1]": {"system": "DNA", "settings": "main Dau containing metabolite; cited from earlier work"}, "[2]": {"system": "HT-1080 (human fibrosarcoma) cells, CD13 positive", "assay": "In vitro cytotoxicity (72 h treatment)", "type": "cell-based", "settings": "72 h continuous treatment, PrestoBlue viability, 5000 cells/well, 9 concentrations in triplicates, IC50 averaged, tests carried out 3 times, read-out: IC50, 72 h, HT1080 (cytotoxic effect)", "method": "(§1) In the case of cytotoxicity measurements, the drug containing medium was on the cells for the full period of the 72 h assay. At 72 h, supernatant was removed from the cells, and viability was assessed by the PrestoBlue® reagent (Life Technologies), which was diluted in PBS to reach the concentration given in the manufacturer’s instruction. Curves were fitted by GraphPad Prism 5 software using the sigmoidal dose–response model (https://www.graphpad.com/scientific-software/prism/). The conjugates were serially diluted, 9 concentrations were measured in triplicates. […] IC50 values were averaged; statistical significance was calculated using unpaired t-tests. The cytostatic/cytotoxic effect of the cyclic NGR peptide-Dau conjugates was examined in vitro on CD13-positive HT-1080 human fibrosarcoma cells and on CD13-negative HT-29 human colon adenocarcinoma cells. High expression of CD13 in HT-1080 cells was confirmed by FACS, using the CD13-specific OKM13 antibody. […] We compared the toxicity of the conjugates and the free drug molecules. It is important to note that the free drug enters the cell via diffusion, while the conjugates are taken up by a receptor-mediated pathway, which is followed by the intracellular release of the drug molecule or its active metabolite. […] In the second experiment the conjugates were added to the cells for 72 h (cytotoxic effect)."}, "[3]": {"system": "HT-29 (human colon adenocarcinoma) cells, CD13 negative", "assay": "In vitro cytotoxicity (72 h treatment)", "type": "cell-based", "settings": "72 h continuous treatment, PrestoBlue viability, 5000 cells/well, 9 concentrations in triplicates, IC50 averaged, tests carried out 3 times, read-out: IC50, 72 h, HT-29 (cytotoxic effect)", "method": "as §1"}, "[4]": {"system": "HT-1080 (human fibrosarcoma) cells, CD13 positive", "assay": "In vitro cytostatic effect (6 h treatment + 66 h drug-free)", "type": "cell-based", "settings": "HT-1080, read-out: IC50, 6 h, HT1080 (cytostatic effect)", "method": "as §1, with “At” for “In the case of cytotoxicity measurements, the drug containing medium was on the cells for the full period of the 72 h assay. At”"}, "[5]": {"system": "HT-29 (human colon adenocarcinoma) cells, CD13 negative", "assay": "In vitro cytostatic effect (6 h treatment + 66 h drug-free)", "type": "cell-based", "settings": "HT-29, read-out: IC50, 6 h, HT-29 (cytostatic effect)", "method": "as §1, with “At” for “In the case of cytotoxicity measurements, the drug containing medium was on the cells for the full period of the 72 h assay. At”"}}}
{"compound": "COc1cccc2c1C(=O)c1c(O)c3c(c(O)c1C2=O)C(OC1CC(N)C(O)C(C)O1)CC(O)(C(C)=NOCC(=O)NCC(=O)O)C3", "note": "(stereo not drawn) [Dau = Aoa-Gly-OH]", "values": [{"measurement": "binding to DNA", "setting": "[1]", "value": "binds efficiently to DNA"}]}
{"compound": "COc1cccc2c1C(=O)c1c(O)c3c(c(O)c1C2=O)C[C@@](O)(C(C)=O)C[C@@H]3O[C@H]1C[C@H](N)[C@H](O)[C@H](C)O1", "note": "[Daunomycin, daunomycin]", "values": [{"measurement": "IC50", "setting": "[2]", "value": "230 ± 100", "unit": "nM"}, {"measurement": "IC50", "setting": "[3]", "value": "150 ± 100", "unit": "nM"}, {"measurement": "IC50", "setting": "[4]", "value": "700 ± 300", "unit": "nM"}, {"measurement": "IC50", "setting": "[5]", "value": "700 ± 300", "unit": "nM"}]}
